Data reported in patent US20220378923A1, “BET DEGRADER” (KYOWA KIRIN CO., LTD., priority 2019, published 2022).

Experiments:
Type in all cases: cell-based
Details in all cases: SU-DHL-4 cells, test compound 100 nmol/L, 24 hours
[1] = biological target: T1, BRD3 (Homo sapiens, UniProt Q15059); assay: Evaluation of BET proteolysis in SU-DHL-4 cell line by Western blotting: BRD3 (Test Example 4)
T1 construct: Changes in the amount of BRD4, BRD2 and BRD3 proteins in the SU-DHL-4 cell line; endogenous in cells; host or cells: SU-DHL-4
T1 sequence (Q15059 whole entry): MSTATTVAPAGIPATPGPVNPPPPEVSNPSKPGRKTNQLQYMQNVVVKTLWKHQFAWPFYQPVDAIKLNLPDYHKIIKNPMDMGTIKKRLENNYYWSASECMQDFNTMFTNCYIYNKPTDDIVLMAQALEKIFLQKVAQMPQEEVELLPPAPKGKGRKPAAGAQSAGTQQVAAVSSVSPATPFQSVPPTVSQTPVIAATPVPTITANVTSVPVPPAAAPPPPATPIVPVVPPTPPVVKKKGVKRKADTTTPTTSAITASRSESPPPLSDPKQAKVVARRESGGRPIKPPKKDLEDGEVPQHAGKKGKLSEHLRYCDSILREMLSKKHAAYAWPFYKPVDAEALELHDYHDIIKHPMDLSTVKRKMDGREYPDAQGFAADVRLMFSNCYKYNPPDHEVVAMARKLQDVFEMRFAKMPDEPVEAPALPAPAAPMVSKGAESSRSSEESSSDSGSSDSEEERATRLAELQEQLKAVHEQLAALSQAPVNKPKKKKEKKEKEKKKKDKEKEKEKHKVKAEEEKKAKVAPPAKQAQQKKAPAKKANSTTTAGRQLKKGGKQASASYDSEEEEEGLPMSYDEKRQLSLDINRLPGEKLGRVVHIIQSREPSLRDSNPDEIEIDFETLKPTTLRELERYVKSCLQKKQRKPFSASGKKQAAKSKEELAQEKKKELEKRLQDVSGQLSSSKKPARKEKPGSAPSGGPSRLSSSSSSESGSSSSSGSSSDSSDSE
Procedure: (§1) The human DLBCL cell line SU-DHL-4 was purchased from DSMZ. SU-DHL-4 was passaged using RPMI1640 medium containing 10 vol % FBS. The culture conditions were 37° C. and 5% CO2.
Anti-BRD3 antibody: Anti-BRD3 antibody (2088C3a) (Santa Cruz Biotechnology, Cat No. sc-81202)
(§2) Changes in the amount of BRD4, BRD2 and BRD3 proteins in the SU-DHL-4 cell line by the test compound (compound 1b, compound 1l or compound P3) were detected by WB. The compound P3 is a compound described as example 14 in the known Patent Document 2 (WO 2015/081284), which was synthesized according to the method described in Patent Document 2 and used in this test.
(§3) The cultured SU-DHL-4 cells were seeded at 6×10^5 cells/well in a transparent 6-well plate (Code No. 140675, Thermo Fisher Scientific). After seeding, the cells were pre-cultured at 37° C. in a carbon dioxide gas incubator for 18 to 25 hours. Next, a 0.1 mmol/L DMSO solution of the test compound was prepared, diluted so that the concentration was 200-fold of the final concentration in RPMI1640 medium containing the above FBS and PS, and 1/200 volume of the diluted solution was added to each well. At this time, the final concentration of DMSO was adjusted to be 0.1 vol %. After adding the test compound, the cells were cultured at 37° C. in a carbon dioxide gas incubator for 24 hours.
(§4) After collecting the cells, the supernatant was aspirated, and Lysis buffer 6 (R&D systems, Cat No. 895561) was added to the pellet at 0.1 mL/sample. After incubating on ice for 60 minutes, the supernatant was collected by centrifugation at 15000 rpm for 10 minutes at 4° C.
(§5) Using Pierce BCA Protein Assay Kit (Thermo Fisher, Cat No. 23225), the protein concentration of each sample was quantified according to the manual attached to the kit, and then was diluted and prepared with Lane Marker Reducing Sample Buffer (5×) (Thermo Fisher, Cat No. 39000) and Lysis buffer 6 to 1 mg/mL. The cells were incubated at 95° C. for 5 minutes to prepare WB samples. WB samples were stored at −30° C. until electrophoresis.
(§6) The WB sample was thawed and used after vortex mixing and spin down. […]

[2] = biological target: T2, BRD2 (Homo sapiens, UniProt P25440); assay: Evaluation of BET proteolysis in SU-DHL-4 cell line by Western blotting: BRD2 (Test Example 4)
T2 construct: Changes in the amount of BRD4, BRD2 and BRD3 proteins in the SU-DHL-4 cell line; endogenous in cells; host or cells: SU-DHL-4
T2 sequence (P25440 whole entry): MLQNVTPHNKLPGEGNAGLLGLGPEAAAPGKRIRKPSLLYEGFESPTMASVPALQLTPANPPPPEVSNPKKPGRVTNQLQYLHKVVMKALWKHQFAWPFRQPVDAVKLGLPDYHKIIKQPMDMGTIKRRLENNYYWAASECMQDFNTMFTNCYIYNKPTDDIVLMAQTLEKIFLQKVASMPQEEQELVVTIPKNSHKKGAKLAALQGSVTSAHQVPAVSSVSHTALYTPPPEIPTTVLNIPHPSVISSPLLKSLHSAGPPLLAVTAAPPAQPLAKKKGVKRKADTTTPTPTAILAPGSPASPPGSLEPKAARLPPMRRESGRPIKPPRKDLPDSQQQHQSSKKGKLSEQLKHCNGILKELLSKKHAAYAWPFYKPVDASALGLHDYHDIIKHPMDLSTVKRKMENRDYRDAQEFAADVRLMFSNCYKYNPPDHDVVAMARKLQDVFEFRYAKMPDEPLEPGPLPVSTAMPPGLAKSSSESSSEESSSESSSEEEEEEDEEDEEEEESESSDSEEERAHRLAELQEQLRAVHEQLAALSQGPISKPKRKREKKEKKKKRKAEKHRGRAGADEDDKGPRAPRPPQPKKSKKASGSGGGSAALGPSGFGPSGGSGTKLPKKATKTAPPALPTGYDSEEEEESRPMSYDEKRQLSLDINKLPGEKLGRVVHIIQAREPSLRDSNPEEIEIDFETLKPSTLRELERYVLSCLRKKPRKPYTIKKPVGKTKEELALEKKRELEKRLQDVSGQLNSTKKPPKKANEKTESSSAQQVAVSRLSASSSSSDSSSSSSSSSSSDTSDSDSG
Procedure: as §1
Anti-BRD2 antibody: Brd2 (D8964) Rabbit mAb (Cell Signaling Technology, Cat No. #5848S)
as §2, §3, §4, §5, §6

[3] = biological target: T3, BRD4 (Homo sapiens, UniProt O60885); assay: Evaluation of BET proteolysis in SU-DHL-4 cell line by Western blotting: BRD4 (Test Example 4)
T3 construct: Changes in the amount of BRD4, BRD2 and BRD3 proteins in the SU-DHL-4 cell line; endogenous in cells; host or cells: SU-DHL-4
Procedure: as §1
Anti-BRD4 antibody: BRD4 (E2A7X) Rabbit mAb (Cell Signaling Technology, Cat No. #13440S)
as §2, §3, §4, §5, §6

Cc1sc2c(c1C)C(c1ccc(C(=O)NCCCNC(=O)c3ccc(C4=N[C@@H](CC(=O)OC(C)(C)C)c5nnc(C)n5-c5sc(C)c(C)c54)cc3)cc1)=N[C@@H](CC(=O)OC(C)(C)C)c1nnc(C)n1-2 [Compound 1b, Di-tert-butyl 2,2′-[(6S,6′S)-({[propane-1,3-diylbis(azanediyl)]bis(carbonyl)}bis(4,1-phenylene))bis(2,3,9-trimethyl-6H-thieno[3,2-f][1,2,4]triazolo[4,3-a][1,4]diazepine-4,6-diyl)]diacetate]
change in amount of BRD3 protein (band in Western blotting, FIG. 1) [1]: the band became faint compared with that of control
change in amount of BRD2 protein (band in Western blotting, FIG. 1) [2]: the band became faint compared with that of control
change in amount of BRD4 protein (band in Western blotting, FIG. 1) [3]: the band became faint compared with that of control

CCC(=O)N1c2ccccc2[C@H](Nc2ccc(C(=O)NCC(=O)CNC(=O)c3ccc(N[C@@H]4C[C@H](C)N(C(=O)CC)c5ccccc54)cc3)cc2)C[C@@H]1C [Compound 1l, N,N′-(2-Oxopropane-1,3-diyl)bis(4-{[(2S,4R)-2-methyl-1-propionyl-1,2,3,4-tetrahydroquinolin-4-yl]amino}benzamide)]
change in amount of BRD3 protein (band in Western blotting, FIG. 1) [1]: the band became faint compared with that of control
change in amount of BRD2 protein (band in Western blotting, FIG. 1) [2]: the band became faint compared with that of control
change in amount of BRD4 protein (band in Western blotting, FIG. 1) [3]: the band became faint compared with that of control
